# Reference: patent US20180002319A1, “MACROCYCLIC PICOLINAMIDE COMPOUNDS WITH FUNGICIDAL ACTIVITY” (DOW AGROSCIENCES LLC, priority 2014, published 2018)
# Where two headings read alike, the source gives them in different places.
# Assays:
# Zymoseptoria tritici = assay: Leaf Blotch of Wheat (SEPTTR) fungicidal activity; assay type: in vivo; settings: wheat leaf blotch; for pest or weed control at 100 ppm: High Volume application; for pest or weed control at 121.5 g/ha: Low Volume application, 121.5 g/H
# Experimental: Example A: Evaluation of Fungicidal Activity: Leaf Blotch of Wheat (Zymoseptoria tritici; Bayer Code […]) Technical grades of materials were dissolved in acetone, which were then mixed with nine volumes of H2O containing 110 ppm Triton X-100. The fungicide solutions were applied onto wheat seedlings using an automated booth sprayer to run-off. All sprayed plants were allowed to air dry prior to further handling. All fungicides were evaluated using the aforementioned method for their activity vs. all target diseases, unless stated otherwise. Wheat leaf blotch and brown rust activity were also evaluated using track spray applications, in which case the fungicides were formulated as EC formulations, containing 0.1% Trycol 5941 in the spray solutions. Wheat plants (variety Yuma) were grown from seed in a greenhouse in 50% mineral soil/50% soil-less Metro mix until the first leaf was fully emerged, with 7-10 seedlings per pot. These plants were inoculated with an aqueous spore suspension of Zymoseptoria tritici either prior to or after fungicide treatments. After inoculation the plants were kept in 100% relative humidity (one day in a dark dew chamber followed by two to three days in a lighted dew chamber at 20° C.) to permit spores to germinate and infect the leaf. The plants were then transferred to a greenhouse set at 20° C. for disease to develop. When disease symptoms were fully expressed on the 1st leaves of untreated plants, infection levels were assessed on a scale of 0 to 100 percent disease severity. Percent disease control was calculated using the ratio of disease severity on treated plants relative to untreated plants.
# Puccinia triticina = assay: Wheat Brown Rust (PUCCRT) fungicidal activity; assay type: in vivo; settings: for pest or weed control at 100 ppm: High Volume application; for pest or weed control at 121.5 g/ha: Low Volume application, 121.5 g/H
# Experimental: Technical grades of materials were dissolved in acetone, which were then mixed with nine volumes of H2O containing 110 ppm Triton X-100. The fungicide solutions were applied onto wheat seedlings using an automated booth sprayer to run-off. All sprayed plants were allowed to air dry prior to further handling. All fungicides were evaluated using the aforementioned method for their activity vs. all target diseases, unless stated otherwise. Wheat leaf blotch and brown rust activity were also evaluated using track spray applications, in which case the fungicides were formulated as EC formulations, containing 0.1% Trycol 5941 in the spray solutions. Wheat plants (variety Yuma) were grown from seed in a greenhouse in 50% mineral soil/50% soil-less Metro mix until the first leaf was fully emerged, with 7-10 seedlings per pot. These plants were inoculated with an aqueous spore suspension of Zymoseptoria tritici either prior to or after fungicide treatments. After inoculation the plants were kept in 100% relative humidity (one day in a dark dew chamber followed by two to three days in a lighted dew chamber at 20° C.) to permit spores to germinate and infect the leaf. The plants were then transferred to a greenhouse set at 20° C. for disease to develop. When disease symptoms were fully expressed on the 1st leaves of untreated plants, infection levels were assessed on a scale of 0 to 100 percent disease severity. Percent disease control was calculated using the ratio of disease severity on treated plants relative to untreated plants. Example B: Evaluation of Fungicidal Activity: Wheat Brown Rust (Puccinia triticina; Bayer Code PUCCRT) Wheat plants (variety Yuma) were grown from seed in a greenhouse in 50% mineral soil/50% soil-less Metro mix until the first leaf was fully emerged, with 7-10 seedlings per pot. These plants were inoculated with an aqueous spore suspension of Puccinia triticina either prior to or after fungicide treatments. After inoculation the plants were kept in a dark dew room at 22° C. with 100% relative humidity overnight to permit spores to germinate and infect the leaf. The plants were then transferred to a greenhouse set at 24° C. for disease to develop. Fungicide formulation, application and disease assessment followed the procedures as described in the Example A.
# [1] = 24 h, 1 day protectant, read-out: SEPTTR disease control, 1DP (1 Day Protectant)
# [2] = 24 h, 1 day protectant, read-out: PUCCRT disease control, 1DP (1 Day Protectant)
# [3] = 72 h, 3 day curative, read-out: PUCCRT disease control, 3DC (3 Day Curative)
# [4] = 72 h, 3 day curative, read-out: SEPTTR disease control, 3DC (3 Day Curative)
Structure (SMILES),pest or weed control at 100 ppm (Zymoseptoria tritici; [1]) [%],pest or weed control at 100 ppm (Puccinia triticina; [2]) [%],pest or weed control at 100 ppm (Puccinia triticina; [3]) [%],pest or weed control at 100 ppm (Zymoseptoria tritici; [4]) [%],pest or weed control at 121.5 g/ha (Zymoseptoria tritici; [1]) [%],pest or weed control at 121.5 g/ha (Zymoseptoria tritici; [4]) [%],pest or weed control at 121.5 g/ha (Puccinia triticina; [2]) [%],pest or weed control at 121.5 g/ha (Puccinia triticina; [3]) [%]
COc1ccnc(C(=O)N[C@H]2COCC[C@H](OCc3ccccc3)[C@@H](OCc3ccccc3)[C@H](C)OC2=O)c1O [Compound 81],> 80,> 80,> 80,–,–,–,–,–
COc1ccnc(C(=O)N[C@H]2CCCC[C@H](OC)[C@@H](OCC(C)C)[C@H](C)OC2=O)c1O [Compound 92],> 80,> 80,> 80,> 80,–,–,–,–
COc1ccnc(C(=O)N[C@H]2CCCC[C@H](OCC(C)C)[C@@H](OCC(C)C)[C@H](C)OC2=O)c1OCOC(C)=O [Compound 14],> 80,> 80,> 80,> 80,> 80,< 80,> 80,< 80
CCCO[C@H]1[C@H](C)OC(=O)[C@@H](NC(=O)c2nccc(OC)c2O)CCCC[C@@H]1Oc1ccccc1 [Compound 97],> 80,> 80,> 80,< 80,–,–,–,–
CCOCC(=O)OCOc1c(OC)ccnc1C(=O)N[C@H]1COCC[C@H](Cc2ccc(F)cc2)[C@@H](OCC2CC2)[C@H](C)OC1=O [Compound 78],–,–,–,–,> 80,< 80,> 80,> 80
COc1ccnc(C(=O)N[C@H]2CCCC[C@H](OCc3ccccc3)[C@@H](OCc3ccccc3)[C@H](C)OC2=O)c1O [Compound 88],> 80,> 80,–,< 80,–,–,–,–
CC[C@H]1CCOC[C@H](NC(=O)c2nccc(OC)c2OCOC(C)=O)C(=O)O[C@@H](C)[C@@H]1OC(=O)C1CC1 [Compound 79],–,–,–,–,> 80,–,> 80,> 80
COc1ccc(CO[C@H]2[C@H](C)OC(=O)[C@@H](NC(=O)c3nccc(OC)c3OCOC(C)=O)CCOC[C@@H]2OCc2ccc(OC)cc2)cc1 [Compound 32],–,–,–,–,–,< 80,–,< 80
CCCO[C@H]1CCCC[C@H](NC(=O)c2nccc(OC)c2OC(C)=O)C(=O)O[C@@H](C)[C@@H]1Oc1ccccc1 [Compound 26],–,–,–,–,> 80,> 80,> 80,> 80
"CCOCC(=O)OCOc1c(OC)ccnc1C(=O)N[C@H]1CCCC[C@H](CC2CCCC2)[C@@H](Oc2ccccc2)[C@H](C)OC1=O [Compound 51, ((2-(((3S,8R,9R,10S)-8-(cyclopentylmethyl)-10-methyl-2-oxo-9-phenoxyoxecan-3-yl)carbamoyl)-4-methoxypyridin-3-yl)oxy)methyl 2-ethoxyacetate]",–,–,–,–,> 80,–,> 80,< 80
COc1ccnc(C(=O)N[C@H]2CCOC[C@H](OCC(C)C)[C@@H](OCC(C)C)[C@H](C)OC2=O)c1O [Compound 116],–,< 80,< 80,< 80,–,–,–,–
COc1ccnc(C(=O)N[C@H]2CCOC[C@H](OC)[C@@H](Oc3ccccc3)[C@H](C)OC2=O)c1O [Compound 113],> 80,> 80,> 80,> 80,–,–,–,–
CCCO[C@H]1COCC[C@H](NC(=O)c2nccc(OC)c2O)C(=O)O[C@@H](C)[C@@H]1Oc1ccccc1 [Compound 114],> 80,> 80,> 80,> 80,–,–,–,–
COc1ccnc(C(=O)N[C@H]2CCOC[C@H](OC)[C@@H](Oc3ccccc3)[C@H](C)OC2=O)c1OCOC(C)=O [Compound 40],–,–,–,–,> 80,> 80,> 80,> 80
COc1ccnc(C(=O)N[C@H]2CCCC[C@H](CC3CCCC3)[C@@H](OC(=O)C(C)C)[C@H](C)OC2=O)c1O [Compound 123],–,< 80,–,< 80,–,–,–,–
CCCCO[C@H]1CCOC[C@H](NC(=O)c2nccc(OC)c2O)C(=O)O[C@@H](C)[C@@H]1OC(=O)c1ccccc1 [Compound 84],< 80,> 80,> 80,> 80,–,–,–,–
COc1ccnc(C(=O)N[C@H]2CCOC[C@H](OCC(C)C)[C@@H](Oc3ccccc3)[C@H](C)OC2=O)c1O [Compound 118],> 80,> 80,< 80,–,–,–,–,–
COc1ccc(CO[C@H]2[C@H](C)OC(=O)[C@@H](NC(=O)c3nccc(OC)c3O)CCOC[C@@H]2OCc2ccc(OC)cc2)cc1 [Compound 106],> 80,> 80,–,< 80,–,–,–,–
COc1ccnc(C(=O)N[C@H]2CCCC[C@H](Cc3ccccc3)[C@@H](OCC(C)C)[C@H](C)OC2=O)c1O [Compound 102],> 80,> 80,< 80,–,–,–,–,–
CCC[C@H]1CCCC[C@H](NC(=O)c2nccc(OC)c2O)C(=O)O[C@@H](C)[C@@H]1OC(=O)C(C)C [Compound 103],< 80,> 80,< 80,–,–,–,–,–
COc1ccnc(C(=O)N[C@H]2CCOC[C@H](Oc3ccccc3)[C@@H](Oc3ccccc3)[C@H](C)OC2=O)c1O [Compound 110],> 80,> 80,> 80,–,–,–,–,–
COc1ccnc(C(=O)N[C@H]2CCCC[C@H](Oc3ccccc3)[C@@H](OCC(C)C)[C@H](C)OC2=O)c1OCOC(C)=O [Compound 10],> 80,> 80,> 80,> 80,–,–,–,–
COc1ccnc(C(=O)N[C@H]2CCCC[C@H](Oc3ccccc3)[C@@H](OC3CCCC3)[C@H](C)OC2=O)c1OCOC(C)=O [Compound 36],–,–,–,–,< 80,< 80,> 80,> 80
COc1ccnc(C(=O)N[C@H]2CCCC[C@H](OC)[C@@H](OC3CCCC3)[C@H](C)OC2=O)c1O [Compound 107],> 80,> 80,> 80,< 80,–,–,–,–
COc1ccnc(C(=O)N[C@H]2CCOC[C@H](OCC(C)C)[C@@H](OCC(C)C)[C@H](C)OC2=O)c1OCOC(C)=O [Compound 43],–,–,–,–,–,–,> 80,< 80
COc1ccnc(C(=O)N[C@H]2CCCC[C@H](OC3CCCC3)[C@@H](OC)[C@H](C)OC2=O)c1OCOC(C)=O [Compound 35],–,–,–,–,–,–,> 80,< 80
COc1ccnc(C(=O)N[C@H]2CCCC[C@H](OC)[C@@H](OC)[C@H](C)OC2=O)c1O [Compound 99],–,> 80,–,–,–,–,–,–
